# Molecular target: hNPY1R (Homo sapiens (Human), UniProt P25929)
# Experiment: NPY1R binding assay (SK-N-MC membrane, [125I]-Peptide YY competition);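 also: bound radioligand separated by filtration over GF/C filter plates and counted, Ki obtained by non-linear regression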
# Conditions: not given
# Chain of hNPY1R (P25929 whole entry): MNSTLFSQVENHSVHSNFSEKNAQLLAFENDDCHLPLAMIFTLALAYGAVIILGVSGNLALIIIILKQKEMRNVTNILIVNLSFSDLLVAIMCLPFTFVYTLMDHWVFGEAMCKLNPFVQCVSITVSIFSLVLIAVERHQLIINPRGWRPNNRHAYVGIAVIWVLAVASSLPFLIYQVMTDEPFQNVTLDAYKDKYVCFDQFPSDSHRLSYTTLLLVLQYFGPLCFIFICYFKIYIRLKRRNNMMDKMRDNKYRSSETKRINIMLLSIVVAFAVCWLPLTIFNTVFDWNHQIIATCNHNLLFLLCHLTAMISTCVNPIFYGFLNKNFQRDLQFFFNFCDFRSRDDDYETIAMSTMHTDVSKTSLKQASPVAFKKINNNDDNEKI
row,Structure (SMILES),Ki
1,"CCC(=O)NCCNC(=O)/N=C(/N)NCCC[C@@H](NC(=O)[C@H](c1ccc(OCCCNC(=O)CCCCCNC(=O)CN2CCN3CCN4CCN(CC2)CC(=O)[O][Ga]([O]C(=O)C3)[O]C(=O)C4)cc1)N1Cc2ccccc2C1)C(=O)NCc1ccc(O)cc1 [1A-Ga, Gallium (III) 2,2′,2″-(10-(2-((6-((3-(4-((1S,4R,Z)-9-amino-4-((4-hydroxybenzyl)carbamoyl)-1-(isoindolin-2-yl)-2,11,16-trioxo-3,8,10,12,15-pentaazaoctadec-9-en-1-yl)phenoxy)propyl)amino)-6-oxohexyl)amino)-2-oxoethyl)-1,4,7,10-tetraazacyclododecane-1,4,7-triyl)triacetate]",< 10 nM

# Same assay, conditions: crude SK-N-MC membranes endogenously expressing NPY1R; [125I]-Peptide YY (human) 0.05 nM; 120 min at room temperature; read-out: hNPY1R binding Ki
row,Structure (SMILES),Ki
1,"N=C(N)NCCC[C@@H](NC(=O)[C@H](c1ccccc1)N1Cc2ccccc2C1)C(=O)NCc1c(F)cc(O)cc1F [compound 69, (R)—N-(2,6-difluoro-4-hydroxybenzyl)-5-guanidino-2-((S)-2-(isoindolin-2-yl)-2-phenylacetamido)pentanamide]",< 10 nM
2,"CC(C)C1CCN(C(C(=O)N[C@H](CCCNC(=N)N)C(=O)NCc2ccc(O)cc2)c2ccccc2)CC1 (stereo partly drawn) [compound 77, (2R)-5-guanidino-N-(4-hydroxybenzyl)-2-(2-(4-isopropylpiperidin-1-yl)-2-phenylacetamido)pentanamide]",10 to 100 nM
3,"CCC(=O)NCCNC(=O)/N=C(/N)NCCC[C@@H](NC(=O)[C@H](c1ccccc1)N1Cc2cccc(NCCCNC(=O)CCCCCNC(=O)CN3CCN(CC(=O)O)CCN(CC(=O)O)CCN(CC(=O)O)CC3)c2C1)C(=O)NCc1c(F)cc(O)cc1F [compound 33, 2,2′,2″-(10-(2-((6-((3-((2-((1S,4R,Z)-9-amino-4-((2,6-difluoro-4-hydroxybenzyl)carbamoyl)-2,11,16-trioxo-1-phenyl-3,8,10,12,15-pentaazaoctadec-9-en-1-yl)isoindolin-4-yl)amino)propyl)amino)-6-oxohexyl)amino)-2-oxoethyl)-1,4,7,10-tetraazacyclododecane-1,4,7-triyl)triacetic acid]",< 10 nM
4,"CCC(=O)NCCNC(=O)/N=C(/N)NCCC[C@@H](NC(=O)[C@@H](c1ccc(OCCCNC(=O)CCCCCNC(=O)CN2CCN(CC(=O)O)CCN(CC(=O)O)CCN(CC(=O)O)CC2)cc1)N1Cc2ccccc2C1)C(=O)NCc1ccc(O)cc1 [1B, 2,2′,2″-(10-(2-((6-((3-(4-((1R,4R,Z)-9-amino-4-((4-hydroxybenzyl)carbamoyl)-1-(isoindolin-2-yl)-2,11,16-trioxo-3,8,10,12,15-pentaazaoctadec-9-en-1-yl)phenoxy)propyl)-amino)-6-oxohexyl)amino)-2-oxoethyl)-1,4,7,10-tetraazacyclododecane-1,4,7-triyl)triacetic acid-2,2,2-trifluoroacetic acid (1/1)]",100 to 1000 nM
5,"CCC(=O)NCCNC(=O)/N=C(/N)NCCC[C@@H](NC(=O)[C@H](c1ccc(OCCCNC(=O)[C@@H](CC(N)=O)NC(=O)CCNC(=O)CN2CCN(CC(=O)O)CCN(CC(=O)O)CCN(CC(=O)O)CC2)cc1)N1Cc2ccccc2C1)C(=O)NCc1c(F)cc(O)cc1F [compound 50, 2,2′,2″-(10-(2-((3-(((R)-4-amino-1-((3-(4-((1S,4R,Z)-9-amino-4-((2,6-difluoro-4-hydroxybenzyl)carbamoyl)-1-(isoindolin-2-yl)-2,11,16-trioxo-3,8,10,12,15-pentaazaoctadec-9-en-1-yl)phenoxy)propyl)amino)-1,4-dioxobutan-2-yl)amino)-3-oxopropyl)amino)-2-oxoethyl)-1,4,7,10-tetraazacyclododecane-1,4,7-triyl)triacetic acid]",< 10 nM
6,"CCC(=O)NCCNC(=O)/N=C(/N)NCCC[C@@H](NC(=O)[C@H](c1cccc(NCCCNC(=O)CCC(=O)NCCNC(=O)CN2CCN(CC(=O)O)CCN(CC(=O)O)CCN(CC(=O)O)CC2)c1)N1Cc2ccccc2C1)C(=O)NCc1ccc(O)cc1 [compound 26, 2,2′,2″-(10-(2-((2-(4-((3-((3-((1S,4R,Z)-9-amino-4-((4-hydroxybenzyl)carbamoyl)-1-(isoindolin-2-yl)-2,11,16-trioxo-3,8,10,12,15-pentaazaoctadec-9-en-1-yl)phenyl)amino)propyl)amino)-4-oxobutanamido)ethyl)amino)-2-oxoethyl)-1,4,7,10-tetraazacyclododecane-1,4,7-triyl)triacetic acid]",< 10 nM
7,"CCC(=O)NCCNC(=O)/N=C(/N)NCCC[C@@H](NC(=O)[C@H](c1ccccc1)N1Cc2cccc(NCCCNC(=O)CCC(=O)NCCNC(=O)CN3CCN(CC(=O)O)CCN(CC(=O)O)CCN(CC(=O)O)CC3)c2C1)C(=O)NCc1c(F)cc(O)cc1F [compound 42, 2,2′,2″-(10-(2-((2-(4-((3-((2-((1S,4R,Z)-9-amino-4-((2,6-difluoro-4-hydroxybenzyl)carbamoyl)-2,11,16-trioxo-1-phenyl-3,8,10,12,15-pentaazaoctadec-9-en-1-yl)isoindolin-4-yl)amino)propyl)amino)-4-oxobutanamido)ethyl)amino)-2-oxoethyl)-1,4,7,10-tetraazacyclododecane-1,4,7-triyl)triacetic acid]",< 10 nM
8,"N=C(N)NCCC[C@@H](NC(=O)C(c1ccccc1)N1CCC(C2CC2)CC1)C(=O)NCc1ccc(O)cc1 (stereo partly drawn) [compound 81, (2R)-2-(2-(4-cyclopropylpiperidin-1-yl)-2-phenylacetamido)-5-guanidino-N-(4-hydroxybenzyl)pentanamide]",100 to 1000 nM
9,"CCC(=O)NCCNC(=O)/N=C(/N)NCCC[C@@H](NC(=O)[C@H](c1ccc(OCCCNC(=O)CCOCCNC(=O)CN2CCN(CC(=O)O)CCN(CC(=O)O)CCN(CC(=O)O)CC2)cc1)N1Cc2ccccc2C1)C(=O)NCc1ccc(O)cc1 [compound 15, 2,2′,2″-(10-(2-((2-(3-((3-(4-((1S,4R,Z)-9-amino-4-((4-hydroxybenzyl)carbamoyl)-1-(isoindolin-2-yl)-2,11,16-trioxo-3,8,10,12,15-pentaazaoctadec-9-en-1-yl)phenoxy)propyl)amino)-3-oxopropoxy)ethyl)amino)-2-oxoethyl)-1,4,7,10-tetraazacyclododecane-1,4,7-triyl)triacetic acid]",< 10 nM
10,"CCC(=O)NCCNC(=O)/N=C(/N)NCCC[C@@H](NC(=O)[C@H](c1ccc(OCCCN2CCN(C3CCN(C(=O)CCCCCNC(=O)CN4CCN(CC(=O)O)CCN(CC(=O)O)CCN(CC(=O)O)CC4)CC3)CC2)cc1)N1Cc2ccccc2C1)C(=O)NCc1c(F)cc(O)cc1F [compound 35, 2,2′,2″-(10-(2-((6-(4-(4-(3-(4-((1S,4R,Z)-9-amino-4-((2,6-difluoro-4-hydroxybenzyl)carbamoyl)-1-(isoindolin-2-yl)-2,11,16-trioxo-3,8,10,12,15-pentaazaoctadec-9-en-1-yl)phenoxy)propyl)piperazin-1-yl)piperidin-1-yl)-6-oxohexyl)amino)-2-oxoethyl)-1,4,7,10-tetraazacyclododecane-1,4,7-triyl)triacetic acid]",< 10 nM
11,"CCCC1CCN([C@@H](C(=O)N[C@H](CCCNC(=N)N)C(=O)NCc2ccc(O)cc2)c2ccccc2)CC1 [78A, (R)-5-guanidino-N-(4-hydroxybenzyl)-2-((R)-2-phenyl-2-(4-propylpiperidin-1-yl)acetamido)pentanamide]",> 1000 nM
12,"CCNC(=O)/N=C(/N)NCCC[C@@H](NC(=O)[C@H](c1cccc(NCCCN)c1)N1Cc2ccccc2C1)C(=O)NCc1c(F)cc(O)cc1F [66A, (R)-2-((S)-2-(3-((3-aminopropyl)amino)phenyl)-2-(isoindolin-2-yl)acetamido)-N-(2,6-difluoro-4-hydroxybenzyl)-5-((Z)-2-(ethylcarbamoyl)guanidino)pentanamide]",< 10 nM
13,"CCC(=O)NCCNC(=O)/N=C(/N)NCCC[C@@H](NC(=O)[C@H](c1ccccc1)N1Cc2cccc(NCCCNC(=O)C[C@H](O)C[C@H](O)CCNC(=O)CN3CCN(CC(=O)O)CCN(CC(=O)O)CCN(CC(=O)O)CC3)c2C1)C(=O)NCc1c(F)cc(O)cc1F [compound 41, 2,2′,2″-(10-(2-(((3R,5R)-7-((3-((2-((1S,4R,Z)-9-amino-4-((2,6-difluoro-4-hydroxybenzyl)carbamoyl)-2,11,16-trioxo-1-phenyl-3,8,10,12,15-pentaazaoctadec-9-en-1-yl)isoindolin-4-yl)amino)propyl)amino)-3,5-dihydroxy-7-oxoheptyl)amino)-2-oxoethyl)-1,4,7,10-tetraazacyclododecane-1,4,7-triyl)triacetic acid]",< 10 nM
14,"CCC(=O)NCCNC(=O)/N=C(/N)NCCC[C@@H](NC(=O)[C@H](c1cccc(NCCCNC(=O)[C@@H](CO)NC(=O)CCNC(=O)CN2CCN(CC(=O)O)CCN(CC(=O)O)CCN(CC(=O)O)CC2)c1)N1Cc2ccccc2C1)C(=O)NCc1ccc(O)cc1 [compound 30, 2,2′,2″-(10-(2-((3-(((R)-1-((3-((3-((1S,4R,Z)-9-amino-4-((4-hydroxybenzyl)carbamoyl)-1-(isoindolin-2-yl)-2,11,16-trioxo-3,8,10,12,15-pentaazaoctadec-9-en-1-yl)phenyl)amino)propyl)amino)-3-hydroxy-1-oxopropan-2-yl)amino)-3-oxopropyl)amino)-2-oxoethyl)-1,4,7,10-tetraazacyclododecane-1,4,7-triyl)triacetic acid]",< 10 nM
15,"CCC(=O)NCCNC(=O)/N=C(/N)NCCC[C@@H](NC(=O)[C@H](c1ccc(OCCCN2CCN(C(=O)CCNC(=O)CN3CCN(CC(=O)O)CCN(CC(=O)O)CCN(CC(=O)O)CC3)CC2)cc1)N1Cc2ccccc2C1)C(=O)NCc1c(F)cc(O)cc1F [compound 4, 2,2′,2″-(10-(2-((3-(4-(3-(4-((1S,4R,Z)-9-amino-4-((2,6-difluoro-4-hydroxybenzyl)carbamoyl)-1-(isoindolin-2-yl)-2,11,16-trioxo-3,8,10,12,15-pentaazaoctadec-9-en-1-yl)phenoxy)propyl)piperazin-1-yl)-3-oxopropyl)amino)-2-oxoethyl)-1,4,7,10-tetraazacyclododecane-1,4,7-triyl)triacetic acid-2,2,2-trifluoroacetic acid (1/1)]",< 10 nM
16,"N=C(N)NCCC[C@@H](NC(=O)[C@H](c1ccccc1)N1Cc2ccccc2C1=O)C(=O)NCc1ccc(O)cc1 [71A, (R)-5-guanidino-N-(4-hydroxybenzyl)-2-((S)-2-(1-oxoisoindolin-2-yl)-2-phenylacetamido)pentanamide]",> 1000 nM
